Data: patent publication US9540336B2, “Therapeutic agents” (priority 2011, dated 2017)
≈ marks a conversion by molar mass, not a printed value. Where “and” joins values, the source holds several entries; their conditions need not be identical. Equal values may be shown once. Entries after “also recorded” stand apart in the source; their conditions may differ.

Legend:
[1] = test system: P. denitrificans membranes; experiment: Restoration of NADH oxidation and ROS production, P. denitrificans membranes; format: biochemical, Paracoccus denitrificans
[2] = cited from earlier work
rat mitochondria = experiment: Restoration of NADH oxidation, rat mitochondria; format: biochemical; conditions: KCN-inhibited rat mitochondria
S. aureus membranes = experiment: Restoration of NADH oxidation and ROS production, S. aureus membranes; format: biochemical, Staphylococcus aureus
M. smegmatis mc2 155 = experiment: M. smegmatis growth inhibition (colony counts on 7H9 agar); format: cell-based; conditions: for effect of antioxidants (α-tocopherol, 4-hydroxy-TEMPO, N-acetylcysteine) on growth inhibition: 0.5 μg/ml CFZ or 10 μg/ml INH
M. smegmatis membranes [3] = format: biochemical
[4] = test system: submitochondrial membranes from S. cerevisiae; experiment: Restoration of NADH oxidation and ROS production, S. cerevisiae submitochondrial membranes; format: biochemical
P. aeruginosa membranes = experiment: Restoration of NADH oxidation and ROS production, P. aeruginosa membranes; format: biochemical, Pseudomonas aeruginosa
Bacillus thuringiensis = experiment: Antimicrobial activity (MIC); format: cell-based
Enterococcus faecalis = experiment: Antimicrobial activity (MIC); format: cell-based
[5] = test system: Staphylococcus aureus MRSA; experiment: Antimicrobial activity (MIC); format: cell-based
E. coli membranes = experiment: Restoration of NADH oxidation and ROS production, E. coli membranes; format: biochemical
M. smegmatis membranes [6] = experiment: ROS production by M. smegmatis log-phase membranes (Amplex Red/HRP/superoxide dismutase); format: biochemical
M. smegmatis membranes [7] = experiment: Reduction and reoxidation (redox cycling) with M. smegmatis membranes and NADH; format: biochemical
[8] = biological target: recombinant M. tuberculosis NDH-2 (Mycobacterium tuberculosis, UniProt P95160); format: biochemical
Sequence of recombinant M. tuberculosis NDH-2 (P95160 whole entry, looked up): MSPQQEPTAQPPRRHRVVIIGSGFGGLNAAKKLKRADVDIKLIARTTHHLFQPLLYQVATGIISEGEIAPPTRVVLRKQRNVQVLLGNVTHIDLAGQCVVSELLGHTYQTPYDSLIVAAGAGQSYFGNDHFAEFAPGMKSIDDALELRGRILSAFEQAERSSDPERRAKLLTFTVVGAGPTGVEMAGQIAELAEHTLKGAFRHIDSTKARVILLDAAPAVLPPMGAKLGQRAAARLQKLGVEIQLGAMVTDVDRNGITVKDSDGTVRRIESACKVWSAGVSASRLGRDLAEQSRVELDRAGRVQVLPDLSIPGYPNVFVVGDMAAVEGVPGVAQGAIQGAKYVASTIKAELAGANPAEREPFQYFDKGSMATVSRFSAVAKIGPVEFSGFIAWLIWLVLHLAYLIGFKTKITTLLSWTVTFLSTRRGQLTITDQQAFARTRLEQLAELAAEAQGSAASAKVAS

[9] = Solubility in buffered water as a function of pH (centrifugation, spectroscopy); format: physicochemical
[10] = Solubility and cationic/uncharged species in detergents (Triton X-100, Na-lauroyl sarcosine)
Enterococcus faecium = experiment: Antimicrobial activity (MIC); format: cell-based
[11] = test system: E. faecalis membranes (NDH-2); experiment: E. faecalis membranes: NADH-Q0 reductase activity and ROS production; format: biochemical

## CC(C)N=c1cc2n(-c3ccc(Cl)cc3)c3ccccc3nc-2cc1Nc1ccc(Cl)cc1 [CFZ, 3-(4-chloroanilino)-10-(4-chlorophenyl)-2,10-dihydro-2-(isopropylimino)-phenazine]
[1]; KCN-inhibited P. denitrificans membranes
  restoration of NADH oxidation: did not exhibit significant CFZ-mediated NADH oxidation or ROS production; also recorded: little, if any, restoration of NADH oxidation
[1]; P. denitrificans membranes
  ROS production: did not exhibit significant CFZ-mediated NADH oxidation or ROS production
[2]; Kovacic et al. 1989
  redox potential Em, cationic species: −180 mV
  redox potential Em, uncharged species: −950 mV
[2]; unclear origin
  pKa (commonly quoted): 8.5
Rat mitochondria
  restoration of NADH oxidation: little, if any, restoration of NADH oxidation
S. aureus membranes; KCN-inhibited S. aureus membranes
  restoration of NADH oxidation: significant restoration of NADH oxidation
S. aureus membranes; S. aureus membranes
  ROS production: able to oxidize NADH and generate ROS
  inhibitory effect of high levels on mediated NADH oxidation: inhibitory
M. smegmatis mc2 155
  effect of antioxidants (α-tocopherol, 4-hydroxy-TEMPO, N-acetylcysteine) on growth inhibition: nullified the growth inhibitory activity; also recorded: prevented
M. smegmatis mc2 155; 0.5 μg/ml CFZ or more, ≧4 days, control 670±100 colonies
  colony formation of M. smegmatis on agar: undetectable; also recorded: Virtually no colonies
M. smegmatis membranes [3]
  CFZ-mediated NADH oxidase rate relative to rate in absence of KCN: 25-70%
  fraction of NADH oxidase activity restored (maximum): 0.25 and 0.40-0.70
  restoration of NADH oxidation: restored a significant level of NADH oxidation
[4]; KCN-inhibited S. cerevisiae submitochondrial membranes
  restoration of NADH oxidation: significant restoration of NADH oxidation
[4]; S. cerevisiae submitochondrial particles
  ROS production: able to oxidize NADH and generate ROS
P. aeruginosa membranes; KCN-inhibited P. aeruginosa membranes
  restoration of NADH oxidation: did not exhibit significant CFZ-mediated NADH oxidation or ROS production; also recorded: little, if any, restoration of NADH oxidation
P. aeruginosa membranes; P. aeruginosa membranes
  ROS production: did not exhibit significant CFZ-mediated NADH oxidation or ROS production
Bacillus thuringiensis
  MIC: 5 µM (≈ 2.37 µg/mL)
Enterococcus faecalis
  MIC: 10 µM (≈ 4.73 µg/mL)
[5]
  MIC: 2.5 µM (≈ 1.18 µg/mL)
E. coli membranes; E. coli membranes
  ROS production: did not exhibit significant CFZ-mediated NADH oxidation or ROS production
E. coli membranes; KCN-inhibited E. coli membranes
  restoration of NADH oxidation: did not exhibit significant CFZ-mediated NADH oxidation or ROS production; also recorded: no restoration of NADH oxidation; also recorded: little, if any, restoration of NADH oxidation
M. smegmatis membranes [6]; log-phase membranes, NADH, 0.5 μg CFZ
  increase of rate of ROS production over background: 11.5 fold
M. smegmatis membranes [6]; maximum, 0.1-0.2 μg CFZ/μg membrane protein, no KCN
  ROS (resorufin) production rate relative to rate of NADH consumption / electron transport chain: ~18%
M. smegmatis membranes [6]; succinate as electron donor
  CFZ reduction and ROS production with succinate instead of NADH: neither CFZ reduction nor ROS production was observed
M. smegmatis membranes [7]; 0.5% SDS (final) added
  observed first order rate constant of reoxidation of reduced CFZ: 1.40 ± 0.01 min⁻¹
M. smegmatis membranes [7]; M. smegmatis membranes, NADH
  reduction on NADH addition with membranes: marked loss of CFZ absorbance
M. smegmatis membranes [7]; after agitation, no SDS
  observed first (pseudo) order rate constant of reoxidation of reduced CFZ: 1.25 ± 0.01 min⁻¹
M. smegmatis membranes [7]; assuming 250 μM O2
  second order rate constant for reoxidation of reduced CFZ by O2: ~100 M⁻¹ s⁻¹ and 83 M⁻¹ s⁻¹
[8]
  ROS generation with purified NDH-2 and NADH: generation of ROS
[8]; pH 6.5
  reduction by purified NDH-2: purified NDH-2 reduces CFZ
[9]; 50 mM MOPS/Na+ pH 6.5, 2.0 mM MgCl2, 1.18 μg/ml, 40 min
  fraction of CFZ remaining in solution: ~70%
[9]; above pH 7.5
  soluble compound in water: not detectable
[9]; buffered water (0.1 M buffer), 23 °C, pH 7, aqueous buffer, kinetic from dmso stock, neutral pH, 50 μM added, overnight, centrifuged
  solubility: < 2 µM
[9]; pH 3.5
  solubility in water: virtually all the drug remained in the supernatant
[9]; pH 6.5
  soluble compound in water: barely detectable
[9]; reaction buffer pH 6.5, 1.2 μg/ml, 40-min incubation
  fraction of CFZ remaining soluble: About two-thirds
[10]; buffered Triton X-100 detergent solution
  pKa: 6.8
[10]; pH 3.5, aqueous with cosolvent or surfactant or cyclodextrin
  solubility: ≥ 50 µM
[10]; pH 5, aqueous with cosolvent or surfactant or cyclodextrin
  solubility: ≥ 50 µM
Enterococcus faecium
  MIC: 10 µM (≈ 4.73 µg/mL)

## CN(C)CCCN1c2ccccc2Sc2ccc(Cl)cc21 [CPZ, chlorpromazin]
[11]; 400 μM CPZ, 0.2 mM NADH, 2 mM Q0
  effect on NADH-Q0 reductase activity (NADH oxidation): completely ceased
[11]; E. faecalis membranes
  inhibition of KS6-mediated ROS production: complete inhibition

## NNC(=O)c1ccncc1 [INH, isoniazid]
M. smegmatis mc2 155
  effect of antioxidants (α-tocopherol, 4-hydroxy-TEMPO, N-acetylcysteine) on growth inhibition: not altered; also recorded: not sensitive to antioxidants
M. smegmatis mc2 155; 10 μg/ml
  M. smegmatis growth: completely inhibited

## CN1CCN(CCCN2c3ccccc3Sc3ccc(C(F)(F)F)cc32)CC1 [TPZ, trifluoperazine]
M. smegmatis membranes [3]
  inhibition of NADH oxidase activity: inhibited CFZ-mediated NADH oxidase activity
M. smegmatis membranes [6]; TPZ 0.2 mM
  effect on CFZ-mediated ROS production: sensitive to TPZ
[8]
  effect on ROS formation by purified NDH-2 with CFZ: inhibited
